Assay results: US11446276B2, “Extreme low dose THC as a therapeutic and prophylactic agent for Alzheimer's disease” (University of South Florida, priority 2015, dated 2022)
“Also recorded” adds a separate entry of the source.

What was measured:
[1] = test system: mitochondrial function; conditions: THC 10 to 50 micromolar; cited from earlier work
[2] = test system: phosphorylated GSK-3β; assay: Western blot of phosphorylated GSK-3β in N2a/AβPPswe cells; assay type: cell-based; conditions: 25 nM, 2.5 nM, 0.25 nM THC; 36 hours; FIGS. 5D, 10B
Method: Cells were plated in 6 well plate overnight with 25 nM THC, 2.5 nM THC, or 0.25 nM THC added into each designated wells in duplicate. Cells were lysed after 36 hours incubation. Proteins were loaded onto SDS-page gel and then blotted with each antibody after transfer onto PVDF membrane.
Using 12% Tris-Glycine gel system (Bio-rad), proteins were separated by electrophoresis and semi-dry transferred to a PVDF membrane. GSK-3β and β-actin antibodies were used as primary antibody. After adding secondary antibody, the membranes were exposed using ECL substrate (Pierce). After membrane was developed, film with bands were scanned, followed by analysis of gel-quantification software (QuantityOne, from Biorad).

[3] = molecular target: AChE induced Aβ aggregation (Homo sapiens, UniProt P22303); conditions: THC 50 μM; cited from earlier work
[4] = test system: N2a/AβPPswe cells; assay: MTT toxicity assay; conditions: 36 hours; different concentrations; versus untreated cells; FIG. 9A
Method: Cells were plated in 96-well tissue culture plate at 10,000 cells/well, 100 μL/well. 100 μL THC solution was added at 2× concentrations in each well. Control groups are: 1) cells without THC treatment, cells and fresh medium only and 2) blank, wells with medium without cells. All wells were replicated. Wells were incubated for 36 hours. Cell proliferation kit (Roche 11465007001) was then applied for toxicity assay according to the standard protocol. 10 μL of MTT reagent was first added to each well and incubated at 37° C. for 4 hours. Then 100 μL of solubilization solution was added to each well. These were incubated overnight and optical density (OD) values were read at 575 nm. The percentage of cell viability was calculated as: Cell viability %=(OD−OD blank)/(OD control−OD blank).

[5] = test system: Aβ40 in N2a/AβPPswe cells; assay: Aβ40 ELISA after one or two THC administrations 24 hours apart; assay type: cell-based, human; conditions: FIG. 9B
Method: Studies were conducted on multiple dosings of THC. N2a/AβPPswe cells, as discussed in Example 1, were suspended to 2×10^5/mL, 3 mL plated into each well, and grown in DMEM with 10% fetal bovine serum, 100 U/mL penicillin, 100 μg/mL streptomycin, and 400 μg/mL G418 (Invitrogen), at 37° C. in the presence of 5% CO2. N2a/AβPPswe cells were subcultured using trypsin, and pipetted numerous times to ensure cells were separated into individual cells. Cells were counted, as provided in Example 1, and proper amount of cell medium and fresh medium was added into new flasks according to the ratio of dilution. Pipetting was performed 10 times to homogenize cells, and 3 mL of cells were seeded into medium into each 6 well plate. When one pipette was used up, the cells were mixed in the flask before using them for the next pipette. Compounds were suspended in DMSO, as provided in Example 1.
12 hours after plating, cells were treated with various concentrations of Δ9-THC (T4764-1ML Sigma Aldrich, Merck KGaA; Darmstadt, Germany), with untreated N2a/AβPPswe cells used as a control. Multiple dosing regimens were carried out 24 hours after initial treatment. Treatment was then washed out, i.e. the medium was then removed from the cultures and 3 mL of media containing the treatment compounds were added. […]

[6] = test system: GSK-3β; assay: Western blot of GSK-3β in N2a/AβPPswe cells; assay type: cell-based
Method: Next, the effects of THC on amyloid protein processing were analyzed by testing total GSK-30 and phosphorylated GSK-3β (pGSK-3β) levels. β-actin, a housekeeping gene, was used as a control to indicate that GSK-3β was expressed at a constant rate and that the changes in intensity were not related to the change in expression amount.
The cellular effects of THC were next analyzed. As Aβ processing is mediated by GSK-3β, protein levels were tested. N2a/AβPPswe cells were treated with 2.5 nM or 0.25 nM of THC, as provided in Example 1, and N2a/AβPPswe cell lysate were collected, quantified, and aliquoted.
N2a/AβPPswe cells were cultured as provided above and Δ9-THC added at 0.25 nM and 2.5 nM, as provided in Example 1. After THC treatment for 48 hours, N2a/AβPPswe cell lysate were collected, quantified, and aliquoted. Using 12% Tris-Glycine gel system (Bio-Rad Laboratories, Inc., Hercules, Calif.), protein were separated by electrophoresis and semi-dry transferred to a polyvinylidene difluoride (PVDF) membrane. GSK-3β (Cat #9315, Cell Signaling Technology, Inc. Danvers, Mass.) and β-actin (Cat #A54441, Sigma Aldrich, Merck KGaA; Darmstadt, Germany) antibodies were used as primary antibody. After adding secondary antibody (Goat-anti-Rabbit-HRP Cat #4050-05, Southern Biotech, part of Thermo Fisher Scientific, Waltham, Mass.; Anti-mouse IgG-HRP Cat #A9044, Sigma Aldrich, Merck KGaA; Darmstadt, Germany), the membranes were exposed using ECL substrate (Pierce). After membrane was developed, film with bands were scanned, followed by analysis of gel-quantification software (QuantityOne, from Bio-rad).
The effects of combining THC with other compounds was analyzed using a combination of THC and melatonin. Cells were treated with 2.5 nM of THC and 10 μM or 1 μM melatonin, using the methods discussed above, and N2a/AβPPswe cell lysate collected, quantified, and aliquoted. […] After membrane was developed, film with bands were scanned, followed by analysis of gel-quantification software (QuantityOne, from Biorad).

[7] = test system: Aβ40 in N2a/AβPPswe cells; assay: Aβ40 ELISA of N2a/AβPPswe cells treated with THC or caffeine; assay type: cell-based, human; conditions: for Aβ40 levels versus control: THC 0.25-2500 nM or caffeine 0.625-10 μM; for Percentage of decreased Aβ40: THC 2.5 μg/mL compared with the control; for Aβ40 (pg/mL) in THC-treated cells: THC 2.5 μg/mL, N2a/AβPPswe cells
[8] = test system: CB1 receptor; assay: RT-PCR for CB1 receptor expression level; conditions: cells treated with low doses of THC
[9] = molecular target: acetylcholinesterase (AChE) (Homo sapiens, UniProt P22303); conditions: THC 50 μM; cited from earlier work
Chain of acetylcholinesterase (AChE) (P22303 32-614): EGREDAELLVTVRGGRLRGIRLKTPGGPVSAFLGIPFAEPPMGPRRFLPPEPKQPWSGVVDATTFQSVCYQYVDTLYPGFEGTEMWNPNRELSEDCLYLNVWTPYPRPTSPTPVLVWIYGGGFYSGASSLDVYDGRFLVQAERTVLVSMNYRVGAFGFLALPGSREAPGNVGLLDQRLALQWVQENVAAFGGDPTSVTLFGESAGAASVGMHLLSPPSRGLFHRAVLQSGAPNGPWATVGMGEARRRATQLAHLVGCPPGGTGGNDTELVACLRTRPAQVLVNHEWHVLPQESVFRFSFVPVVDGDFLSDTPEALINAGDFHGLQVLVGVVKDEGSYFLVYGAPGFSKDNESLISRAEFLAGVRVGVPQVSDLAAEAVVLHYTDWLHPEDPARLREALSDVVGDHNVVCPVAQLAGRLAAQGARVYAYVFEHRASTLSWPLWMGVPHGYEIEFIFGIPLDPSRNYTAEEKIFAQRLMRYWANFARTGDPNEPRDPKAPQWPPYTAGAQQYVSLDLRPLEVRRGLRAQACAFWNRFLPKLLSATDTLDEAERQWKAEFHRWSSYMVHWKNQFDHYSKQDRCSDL

Chain of AChE induced Aβ aggregation (P22303 32-614): as above

CCCCCc1cc(O)c2c(c1)OC(C)(C)[C@@H]1CCC(C)=C[C@@H]21 [THC, Δ9-tetrahydrocannabinol]
Cell death [1]: induces cell death
Mitochondrial function [1]: inhibitor of mitochondrial function
Phosphorylated GSK-3β, THC alone [2]: decreases the phosphorylation of GSK-3β; also recorded: decrease of phosphorylated GSK-3β; also recorded: decreases phosphorylated GSK-3β
AChE induced Aβ aggregation [3]: prevents AChE induced Aβ aggregation
Toxicity (reduction of MTT, OD) [4]: no significant difference from the control; also recorded: no toxicity; also recorded: lack of toxicity
Aβ40 (pg/ml) concentrations after one or two administrations ([5]; designated concentrations of THC): decreases Aβ40
Aβ40 in cells treated twice with THC 24 hours apart versus once ([5]; from 12 μM and higher concentrations): significant decrease in Aβ40 concentration compared to cells treated once; also recorded: even greater reduction in Aβ levels
GSK-3β protein levels (ratio to β-actin) ([6]; THC 0.25 nM and 2.5 nM, 48 hours, FIGS. 5A, 5B): dose-dependent decrease; also recorded: decreases the GSK-3β protein levels
GSK-3 levels relative to the control ([6]; lowest level of THC from the tests): about half
Decrease of GSK-3β protein levels over the untreated control ([6]; ultra-low doses of THC, FIGS. 5A, 5B): ≤ 50%
Aβ levels at the lowest dose ([7]; 6 hours, THC 0.25 nM): minor increase
Aβ40 levels versus control ([7]; 6 hours, FIG. 1A): dose-dependent decrease; also recorded: significant reduction
Percentage of decreased Aβ40 ([7]; 6 hr): 9.23%
Aβ40 (pg/mL) in THC-treated cells ([7]; 6 hr): 965.827 pg/mL
Aβ40 levels versus control ([7]; 24 hours, FIG. 1B): dose-dependent decrease; also recorded: exponential drop
Percentage of decreased Aβ40 ([7]; 24 hr): 31.19%
Aβ40 (pg/mL) in THC-treated cells ([7]; 24 hr): 3648.975 pg/mL
Aβ40 levels versus control ([7]; 48 hours, FIG. 1C): dose-dependent decrease; also recorded: significantly differed more
Percentage of decreased Aβ40 ([7]; 48 hr): 51.24%
Aβ40 (pg/mL) in THC-treated cells ([7]; 48 hr): 2894.175 pg/mL
CB1 receptor expression level (RT-PCR) [8]: no significant upregulation
Inhibition of AChE [9]: competitively inhibits
